Test results published in patent publication US20230255943A1, “MMP-9 AND MMP-12 INHIBITION FOR TREATING SPINAL CORD INJURY OR RELATED INJURY TO NEUROLOGICAL TISSUE” (The University of Birmingham, priority 2020, published 2023).

Columns and labels:
[1] = tested on: mice with DC crush injury; test: NF200+ spared fibres above and below the lesion; format: in vivo, mouse; settings: oral
[2] = tested on: mice with DC crush injury; test: Electrophysiology: compound action potentials (CAP) across DC lesion in mice; format: in vivo, mouse
Description: Compound action potentials (CAP) were recorded at 6 w weeks after DC injury and treatment, as described previously—for example B. C. Hains, C. Y. Saab, A. C. Lo, S. G. Waxman, Sodium channel blockade with phenytoin protects spinal cord axons, enhances axonal conduction, and improves functional motor recovery after contusion SCI. Exp Neurol 188, 365-377 (2004).
Briefly, the experimenter was masked to the treatment status of the animals and the CAP amplitude was calculated between the negative deflection after the stimulus artifact and the next peak of the wave. CAP area was also calculated by rectifying the CAP component (full-wave rectification) and measuring its area. To confirm our recordings and that a CAP could not be recorded, the dorsal half of the spinal cord was transected after each experiment between the stimulating and recording electrodes.

[3] = tested on: other members of the enzyme family; test: Selectivity to other members of the enzyme family; format: biochemical, human; settings: relative to MMP-9 and MMP-12
[4] = tested on: mice with DC crush injury; test: BSCB integrity by albumin immunoreactivity; format: in vivo, mouse; settings: oral
Description: After killing animals by exposure to rising concentrations of CO2, mice were intracardially perfused with 4% formaldehyde (TAAB Laboratories, Berkshire, UK) in 0.1M phosphate buffered saline (PBS). The lesion site+5 mm either side were dissected out, post-fixed in 4% formaldehyde and subjected to a graded series of sucrose solutions for cryoprotection. Spinal cords were blocked in OCT mounting compound (TAAB laboratories), sectioned longitudinally at 15 μm-thick using a cryostat (Brights Instruments, Huntingdon, UK) before being collected on charged glass slides (ThermoFisher Scientific, Loughborough, UK) and kept at −20° C. until required. Slides were numbered consecutively and sections from the middle of the lesion site were chosen for all immunohistochemical analyses, as described by previously (Surey S, Berry M, Logan A, Bicknell R, Ahmed Z. Differential cavitation, angiogenesis and wound-healing responses in injured mouse and rat spinal cords. Neuroscience 2014; 275: 62-80).
The integrity of the BSCB was assessed using albumin immunoreactivity in the spinal cord at 3 days after injury, as a surrogate marker of BSCB disruption. Sections were thawed at room temperature and washed in PBS before blocking endogenous […] in H2O2. […]

[5] = target: T1, MMP-12 (Rattus norvegicus, UniProt Q63341); test: MMP-12 activity after DC injury in rats; format: in vivo; settings: oral
T1 construct: from tissue; host or cells: Sprague-Dawley rat spinal cord lesion site
T1 sequence (Q63341 102-465): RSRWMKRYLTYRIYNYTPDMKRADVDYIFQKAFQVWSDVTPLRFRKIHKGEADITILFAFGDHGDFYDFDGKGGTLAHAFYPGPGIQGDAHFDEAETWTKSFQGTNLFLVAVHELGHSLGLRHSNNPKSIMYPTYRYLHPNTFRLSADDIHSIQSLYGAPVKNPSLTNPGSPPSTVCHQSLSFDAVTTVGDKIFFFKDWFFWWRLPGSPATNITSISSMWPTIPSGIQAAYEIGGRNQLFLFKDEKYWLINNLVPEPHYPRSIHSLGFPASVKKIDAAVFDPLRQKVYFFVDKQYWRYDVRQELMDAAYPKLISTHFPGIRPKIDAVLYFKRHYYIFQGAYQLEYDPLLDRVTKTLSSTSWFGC
Description: (§1) The efficacy of oral AZD3342 in the DC injury model in adult Sprague-Dawley rat was also assessed. Animals were divided into 6 groups: (1), Sham (control); (2), DC crush injury+Vehicle; (3), DC crush injury+15 mg/kg AZD3342; (4), DC crush injury+75 mg/kg […]; (5), DC crush injury+375 mg/kg AZD3342; and (6), DC crush injury+Melatonin. Animals were dosed twice daily with oral AZD3342 or vehicle with the experimenters masked to the treatment conditions. These experiments were performed with n=6 rats/group and repeated on 2-3 independent occasions (total n=12-18 rats/group/test).
(§2) The lesion site+3 mm either side for mouse (DC and CC SCI) and lesion site+5 mm either side for rat was dissected (n=6 mice/rats/group, 2 independent repeats, total n=12 mice/rats/group) and rapidly frozen in liquid N2 and stored at −80° C. until required. The enzymatic activity of MMP-9 and MMP-12 was determined in 96-well plates using the SensoLyte 520 MMP-9 and MMP-12 fluorimetric assay kit, according to the manufacturer's instructions (AnaSpec, Fremont, Calif., USA). Fluorescence intensity was measured using a Synergy H1 microplate reader (BioTek UK, Swindon, UK) at Ex/Em=490/520 nm.

[6] = target: T2, MMP-9 (Rattus norvegicus, UniProt P50282); test: MMP-9 activity after DC injury in rats; format: in vivo; settings: oral
T2 construct: from tissue; host or cells: Sprague-Dawley rat spinal cord lesion site
T2 sequence (P50282 108-708): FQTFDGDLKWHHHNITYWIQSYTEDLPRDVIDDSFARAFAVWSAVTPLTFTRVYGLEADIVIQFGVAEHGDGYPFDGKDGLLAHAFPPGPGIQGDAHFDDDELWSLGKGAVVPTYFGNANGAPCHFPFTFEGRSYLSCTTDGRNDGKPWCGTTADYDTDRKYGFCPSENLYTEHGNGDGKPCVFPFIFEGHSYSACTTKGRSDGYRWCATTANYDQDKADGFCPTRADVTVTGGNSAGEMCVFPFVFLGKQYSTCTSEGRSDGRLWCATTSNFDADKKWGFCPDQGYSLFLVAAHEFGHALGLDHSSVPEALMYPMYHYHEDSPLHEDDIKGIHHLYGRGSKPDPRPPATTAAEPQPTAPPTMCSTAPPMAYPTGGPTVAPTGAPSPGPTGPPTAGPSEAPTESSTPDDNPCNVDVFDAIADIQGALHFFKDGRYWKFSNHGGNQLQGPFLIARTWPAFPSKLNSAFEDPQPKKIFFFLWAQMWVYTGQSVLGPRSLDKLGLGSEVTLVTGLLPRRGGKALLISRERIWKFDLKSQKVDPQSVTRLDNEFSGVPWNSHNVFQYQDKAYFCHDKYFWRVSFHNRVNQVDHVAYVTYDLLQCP
Description: as §1, §2

[7] = tested on: rats with DC crush injury; test: Ladder crossing (locomotor function) in rat DC model; format: in vivo; settings: over 6 weeks
Description: as §1
Functional testing after DC lesion and treatment was carried out as described previously (N. D. Fagoe, C. L. Attwell, R. Eggers, L. Tuinenbreijer, D. Kouwenhoven, J. Verhaagen, M. R. Mason, Evaluation of Five Tests for Sensitivity to Functional Deficits following Cervical or Thoracic Dorsal Column Transection in the Rat. PLoS One 11, e0150141 (2016)). […]
Horizontal ladder test: This tests the animals locomotor function and is performed on a 0.9-meter-long horizontal ladder with a diameter of 15.5 cm and randomly adjusted rungs with variable gaps of 3.5-5.0 cm. Animals were assessed traversing the ladder and the left and right rear paw slips were recorded along with the total number of steps and the mean error rate as: the number of slips/total number of steps.

`C[C@]1(CS(=O)(=O)N2CC=C(C#Cc3cnc(C4CC4)nc3)CC2)NC(=O)NC1=O` [AZD1236] was tested, and the “NF200+ spared fibres above (T9) and below (T7) the lesion site” value [1] was “significantly preserved axon fibres”, the “dorsum cord potentials, CAP amplitudes, CAP areas, 24-h delayed treatment” value ([2]; optimal doses, 24 h delay vs immediate) was “equally as effective as immediate delivery” and the “CAP area relative to Sham-treated controls” value ([2]; oral) was 80%. The CAP wave ([2]; oral 200 mg/kg, 6 weeks after DC injury) was “restored a significant CAP wave”, the “mean CAP amplitude” value ([2]; oral, all stimulation intensities) was “significantly larger CAP amplitudes” and the CAP area ([2]; oral, sham 0.65±0.02, DC+vehicle 0.06±0.02) was 0.52±0.09 mV×ms. For the same molecule, the “selectivity to other members of the enzyme family” value [3] was greater than 350 fold, the “suppression of area of BSCB breakdown (albumin immunoreactivity)” value ([4]; 24 h delayed treatment) was greater than 73% and the “suppression of area of BSCB breakdown (albumin immunoreactivity)” value ([4]; immediately after injury, 3 days, vs DC+vehicle) was greater than 75%.

For `C[C@]1(CS(=O)(=O)N2CCC(Oc3ccc(Cl)cn3)CC2)NC(=O)NC1=O` [AZD3342, (5S)-5-[4-(5-chloro-pyridin-2-yloxy)-piperidine-1-sulfonylmethyl]-5-methylimidazolidine-2,4-dione], the MMP-12 activity [5] was “significantly suppresses”, the MMP-9 activity [6] was “significantly suppresses” and the “locomotor function (ladder crossing)” value [7] was “significantly improved”.
